Reference: ChEMBL document CHEMBL1201862, “PubChem BioAssay data set” (2004)
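Five compound concentrations were applied to cells in 96-well plates for 48 hours; endpoints were derived by simple linear interpolation of the resulting dose-response curve. GI50 is the concentration that inhibits growth by half.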 Active and inactive are the calls of the source. Rule as the data show it: active = GI50 up to about 1.1 µM and inactive = higher.

Assays:
Assay in all cases: NCI-60 cell line screen, 48 h
ACHN = tested on: ACHN
BT-549 = tested on: BT-549
CAKI-1 = tested on: CAKI-1
CCRF-CEM = tested on: CCRF-CEM
HCC 2998 = tested on: HCC 2998
HL-60 = tested on: HL-60
IGROV-1 = tested on: IGROV-1
M14 = tested on: M14
MDA-MB-435 = tested on: MDA-MB-435
MDA-N = tested on: MDA-N
NCI-H23 = tested on: NCI-H23
NCI-H460 = tested on: NCI-H460
NCI-H522 = tested on: NCI-H522
OVCAR-5 = tested on: OVCAR-5
PC-3 = tested on: PC-3
RPMI-8226 = tested on: RPMI-8226
SF-295 = tested on: SF-295
SK-OV-3 = tested on: SK-OV-3
SNB-75 = tested on: SNB-75
TK-10 = tested on: TK-10

| SMILES | GI50 (ACHN) | GI50 (BT-549) | GI50 (CAKI-1) | GI50 (CCRF-CEM) | GI50 (HCC 2998) | GI50 (HL-60) | GI50 (IGROV-1) | GI50 (M14) | GI50 (MDA-MB-435) | GI50 (MDA-N) | GI50 (NCI-H23) | GI50 (NCI-H460) | GI50 (NCI-H522) | GI50 (OVCAR-5) | GI50 (PC-3) | GI50 (RPMI-8226) | GI50 (SF-295) | GI50 (SK-OV-3) | GI50 (SNB-75) | GI50 (TK-10) |
| --- | --- | --- | --- | --- | --- | --- | --- | --- | --- | --- | --- | --- | --- | --- | --- | --- | --- | --- | --- | --- |
| O=C1COc2cc(N3CCN(c4cccc(C(F)(F)F)c4)CC3)ccc2N1 | > 100 µM (inactive) | > 100 µM (inactive) | > 100 µM (inactive) | > 100 µM (inactive) | > 100 µM (inactive) | > 100 µM (inactive) | > 100 µM (inactive) | > 100 µM (inactive) | > 100 µM (inactive) | > 100 µM (inactive) | > 100 µM (inactive) | > 100 µM (inactive) | 86.3 µM (inactive) | > 100 µM (inactive) | > 100 µM (inactive) | > 100 µM (inactive) | > 100 µM (inactive) | > 100 µM (inactive) | > 100 µM (inactive) | > 100 µM (inactive) |
| c1cc2cc(Cc3ccc4[nH]ccc4c3)ccc2[nH]1 | 25.2 µM (inactive) | 19.7 µM (inactive) | 17.1 µM (inactive) | 21.9 µM (inactive) | 15.3 µM (inactive) | 10.7 µM (inactive) | 15.9 µM (inactive) | 17.1 µM (inactive) | 16.4 µM (inactive) | 12.9 µM (inactive) | 18.6 µM (inactive) | 15.8 µM (inactive) | 15.6 µM (inactive) | 19.5 µM (inactive) | 13.1 µM (inactive) | > 10 µM (inactive) | 31 µM (inactive) | 19.5 µM (inactive) | 17.9 µM (inactive) | 22.1 µM (inactive) |
| COc1ccc(C[C@H]2NC[C@H](OC(C)=O)[C@H]2OC(C)=O)cc1 | 0.106 µM (active) | 0.171 µM (active) | 0.144 µM (active) | 0.126 µM (active) | 0.115 µM (active) | 0.1 µM (active) | 0.15 µM (active) | 0.0951 µM (active) | 0.164 µM (active) | 0.133 µM (active) | 0.179 µM (active) | 0.172 µM (active) | 0.0525 µM (active) | 0.122 µM (active) | 0.21 µM (active) | 0.275 µM (active) | 0.183 µM (active) | 0.138 µM (active) | 0.0721 µM (active) | 0.31 µM (active) |
| Cc1cn2c(/C=C3/C(=O)Nc4ccccc43)c(-c3ccccc3)nc2s1 | 32.2 µM (inactive) | 32.9 µM (inactive) | > 100 µM (inactive) | > 100 µM (inactive) | > 100 µM (inactive) | > 100 µM (inactive) | 40.5 µM (inactive) | > 100 µM (inactive) | > 100 µM (inactive) | > 100 µM (inactive) | 48.4 µM (inactive) | 78.2 µM (inactive) | > 100 µM (inactive) | > 100 µM (inactive) | 57.3 µM (inactive) | > 100 µM (inactive) | 37.5 µM (inactive) | 30.1 µM (inactive) | 25.8 µM (inactive) | 22.4 µM (inactive) |
| COc1ccc2c(-c3cc4ccccc4o3)cc(=O)oc2c1 | 39.4 µM (inactive) | 34.1 µM (inactive) | 40.6 µM (inactive) | > 100 µM (inactive) | > 55.1 µM (inactive) | > 100 µM (inactive) | 41.3 µM (inactive) | 75.7 µM (inactive) | > 100 µM (inactive) | > 76.6 µM (inactive) | 52.1 µM (inactive) | 44.7 µM (inactive) | 37.2 µM (inactive) | > 42.2 µM (inactive) | 73.5 µM (inactive) | > 88.7 µM (inactive) | 22.9 µM (inactive) | 23.1 µM (inactive) | 8.17 µM (inactive) | 21.7 µM (inactive) |
| c1ccc2c(c1)c1c3c(c4c(n32)=NCCN4)CCC1 | 40.9 µM (inactive) | 32.1 µM (inactive) | 40.8 µM (inactive) | 53.1 µM (inactive) | 33.6 µM (inactive) | 44.4 µM (inactive) | 27.4 µM (inactive) | 44.3 µM (inactive) | 29.7 µM (inactive) | 20.7 µM (inactive) | 31.6 µM (inactive) | 34.7 µM (inactive) | 20.7 µM (inactive) | 36.3 µM (inactive) | 26.6 µM (inactive) | 24.3 µM (inactive) | 26.9 µM (inactive) | 37.1 µM (inactive) | 21.7 µM (inactive) | 59.7 µM (inactive) |
